Publication PMC11467302, “Discovery of a potent, Kv7.3-selective potassium channel opener from a Polynesian traditional botanical anticonvulsant” (Communications Chemistry, 2024)

Experiments:
Format in all cases: cell-based
Kv7.3 [1] = target: T1, Kv7.3 (Homo sapiens, UniProt O43525); experiment: two-electrode voltage clamp, shift of V0.5act, dose response
T1 construct: gene KCNQ3; Kv7.2/3 heteromer expressed in Xenopus oocytes; with Kv7.2 (KCNQ2)

Kv7.3* = target: T2, Kv7.3* (Homo sapiens, UniProt O43525, A315T); experiment: as above
T2 construct: gene KCNQ3; Kv7.3* homomer expressed in Xenopus oocytes
T2 sequence (O43525 1-872 A315T): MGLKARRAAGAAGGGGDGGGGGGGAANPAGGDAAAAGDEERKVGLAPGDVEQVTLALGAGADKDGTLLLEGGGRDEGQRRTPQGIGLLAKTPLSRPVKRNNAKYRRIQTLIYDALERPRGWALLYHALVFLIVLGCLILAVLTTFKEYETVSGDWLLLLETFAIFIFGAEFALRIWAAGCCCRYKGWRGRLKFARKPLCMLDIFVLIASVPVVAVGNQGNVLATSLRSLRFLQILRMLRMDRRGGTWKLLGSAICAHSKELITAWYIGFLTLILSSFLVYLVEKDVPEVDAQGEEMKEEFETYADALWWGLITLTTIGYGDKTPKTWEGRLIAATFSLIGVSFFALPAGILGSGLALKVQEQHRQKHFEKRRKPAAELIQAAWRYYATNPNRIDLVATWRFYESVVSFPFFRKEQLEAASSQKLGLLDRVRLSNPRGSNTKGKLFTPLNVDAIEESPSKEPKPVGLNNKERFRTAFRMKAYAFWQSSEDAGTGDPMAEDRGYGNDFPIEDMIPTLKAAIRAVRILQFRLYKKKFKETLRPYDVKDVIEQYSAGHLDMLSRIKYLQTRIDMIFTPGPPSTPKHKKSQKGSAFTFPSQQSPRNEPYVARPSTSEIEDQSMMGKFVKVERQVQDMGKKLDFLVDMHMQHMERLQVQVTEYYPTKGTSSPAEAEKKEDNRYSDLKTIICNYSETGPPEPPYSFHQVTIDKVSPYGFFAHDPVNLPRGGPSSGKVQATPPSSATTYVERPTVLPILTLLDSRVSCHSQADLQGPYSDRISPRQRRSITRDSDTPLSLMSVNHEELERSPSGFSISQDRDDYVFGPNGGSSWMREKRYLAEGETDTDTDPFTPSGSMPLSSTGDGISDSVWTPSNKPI

Kv7.3 [2] = target: T1, Kv7.3; experiment: two-electrode voltage clamp at […], shift of V0.5act

T1 sequence (O43525 whole entry): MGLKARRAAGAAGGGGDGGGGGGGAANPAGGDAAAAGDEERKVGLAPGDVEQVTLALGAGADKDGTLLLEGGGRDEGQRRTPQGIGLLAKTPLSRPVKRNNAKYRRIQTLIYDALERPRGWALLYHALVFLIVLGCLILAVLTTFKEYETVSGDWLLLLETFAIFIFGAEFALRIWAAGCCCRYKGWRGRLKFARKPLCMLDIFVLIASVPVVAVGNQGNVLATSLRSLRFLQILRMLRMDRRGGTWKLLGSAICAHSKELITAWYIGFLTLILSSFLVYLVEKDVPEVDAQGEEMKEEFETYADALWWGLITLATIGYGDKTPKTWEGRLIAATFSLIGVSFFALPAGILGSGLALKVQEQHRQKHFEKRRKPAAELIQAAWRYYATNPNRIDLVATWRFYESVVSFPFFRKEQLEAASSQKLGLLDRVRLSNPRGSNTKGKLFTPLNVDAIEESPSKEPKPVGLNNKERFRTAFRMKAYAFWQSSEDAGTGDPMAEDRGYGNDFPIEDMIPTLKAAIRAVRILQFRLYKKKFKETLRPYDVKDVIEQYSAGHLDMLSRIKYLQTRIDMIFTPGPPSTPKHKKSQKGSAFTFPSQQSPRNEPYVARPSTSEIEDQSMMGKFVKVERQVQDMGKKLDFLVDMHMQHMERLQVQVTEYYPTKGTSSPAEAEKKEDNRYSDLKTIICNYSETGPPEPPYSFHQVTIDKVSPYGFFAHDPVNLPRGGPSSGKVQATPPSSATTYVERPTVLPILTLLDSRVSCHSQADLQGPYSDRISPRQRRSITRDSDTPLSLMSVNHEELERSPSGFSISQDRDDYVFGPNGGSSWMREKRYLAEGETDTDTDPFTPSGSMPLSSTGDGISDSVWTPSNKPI
T1 sequence (O43526 whole entry partner): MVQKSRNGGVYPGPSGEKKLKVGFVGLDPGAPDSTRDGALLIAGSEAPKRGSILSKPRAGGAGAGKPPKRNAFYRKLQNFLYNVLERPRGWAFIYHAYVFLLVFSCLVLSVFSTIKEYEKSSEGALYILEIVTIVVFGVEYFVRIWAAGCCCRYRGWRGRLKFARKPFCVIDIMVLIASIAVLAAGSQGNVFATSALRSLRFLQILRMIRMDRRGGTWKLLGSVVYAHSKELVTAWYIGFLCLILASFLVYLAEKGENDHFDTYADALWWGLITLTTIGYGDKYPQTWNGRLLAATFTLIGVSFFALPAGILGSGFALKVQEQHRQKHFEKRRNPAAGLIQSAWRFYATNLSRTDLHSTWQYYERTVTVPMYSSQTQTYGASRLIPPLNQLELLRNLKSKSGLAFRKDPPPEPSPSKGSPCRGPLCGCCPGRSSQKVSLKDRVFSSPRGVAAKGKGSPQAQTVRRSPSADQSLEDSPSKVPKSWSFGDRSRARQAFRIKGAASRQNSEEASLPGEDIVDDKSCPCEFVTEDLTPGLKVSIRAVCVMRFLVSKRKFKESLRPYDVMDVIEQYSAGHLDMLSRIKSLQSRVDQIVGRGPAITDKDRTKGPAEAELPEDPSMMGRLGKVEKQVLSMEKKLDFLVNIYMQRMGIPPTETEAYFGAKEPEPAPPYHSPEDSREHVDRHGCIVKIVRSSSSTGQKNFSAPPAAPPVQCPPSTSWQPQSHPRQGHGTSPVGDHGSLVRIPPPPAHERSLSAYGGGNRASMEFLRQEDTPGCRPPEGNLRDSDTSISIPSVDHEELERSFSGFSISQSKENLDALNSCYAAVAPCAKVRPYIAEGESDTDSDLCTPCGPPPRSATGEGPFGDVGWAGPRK

Row | EC50 (Kv7.3 [1]) [nM] | EC50 (Kv7.3*) [nM] | SMILES | two-electrode voltage clamp at 100 μM, shift of V0.5act (Kv7.3 [2])
1 | 2.8 | 0.79 | O=C(O)c1cc(O)ccc1O [GA, gentisic acid] | 
2 |  |  | O=S(=O)(O)c1cc(O)ccc1O [calcium dobesilate] | one analog of GA did exhibit similar efficacy to that of GA—the sulfonic acid, calcium dobesilate
